Experimental data taken from patent US8455475B2 (Gruenenthal GmbH, priority 2009, dated 2013).

The compounds below were run against T1, rat B1R (bradykinin receptor 1) (Rattus norvegicus, UniProt P97583) (assay: FLIPR Ca2+ assay (Fluo-4) on CHO K1 cells stably transfected with the B1R gene of the rat (rB1R cells): % inhibition at 10 μM / IC50, agonist Des-Arg9-bradykinin). Conditions: CHO-K1, rat B1R.
T1 construct: expressed in transfected cells; host or cells: CHO K1 cells
T1 sequence (P97583 1-337): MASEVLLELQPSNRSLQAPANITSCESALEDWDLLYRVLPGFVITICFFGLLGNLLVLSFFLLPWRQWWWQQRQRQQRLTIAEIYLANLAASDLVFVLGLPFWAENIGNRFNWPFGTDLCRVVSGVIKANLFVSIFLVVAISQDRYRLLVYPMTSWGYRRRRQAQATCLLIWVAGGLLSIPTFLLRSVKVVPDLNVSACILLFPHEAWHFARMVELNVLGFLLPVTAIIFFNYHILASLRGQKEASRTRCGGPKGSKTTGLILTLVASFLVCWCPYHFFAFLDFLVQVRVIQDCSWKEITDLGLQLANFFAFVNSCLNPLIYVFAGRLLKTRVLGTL
Assay type: cell-based
How it was run: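 Stably transfected CHO K1 cells loaded with Fluo-4 and read on FLIPR (λex 488, λem 540 nm; peak fluorescence). Test substance (10 μM) added first, then after 10–20 min the agonist at EC80; % inhibition versus maximum achievable inhibition. IC50 from several concentrations, n=2–3, N≥2.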
An inhibition at 10 µM of 104% was found for `O=C(NC1CCc2ccc(C(=O)N3CCC4(CCN(Cc5cccnc5)CC4)CC3)cc21)c1c(F)cccc1Cl` (stereo not drawn) [IND_CC-786, 2-Chloro-6-fluoro-N-[6-[9-(pyridin-3-yl-methyl)-3,9-diazaspiro[5.5]undecane-3-carbonyl]-2,3-dihydro-1H-inden-1-yl]-benzamide] in this work. An inhibition at 10 µM of 100% was found for `CCC(CC)C(=O)NC1CCc2ccc(C(=O)N3CCC4(CCN(c5ccncc5)CC4)C3)cc21` (stereo not drawn) [IND_CC-420, 2-Ethyl-N-[6-(8-pyridin-4-yl-2,8-diazaspiro[4.5]decane-2-carbonyl)-2,3-dihydro-1H-inden-1-yl]-butyramide] in this work. An inhibition at 10 µM of 63% was found for `O=C(NC1CCc2ccc(C(=O)N3CCC4(CCN(Cc5ccc(F)c(F)c5)CC4)CC3)cc21)c1cc(Cl)ccc1F` (stereo not drawn) [IND_CC-628, 5-Chloro-N-[6-[9-[(3,4-difluoro-phenyl)-methyl]-3,9-diazaspiro[5.5]undecane-3-carbonyl]-2,3-dihydro-1H-inden-1-yl]-2-fluoro-benzamide] in this work. An inhibition at 10 µM of 55% was found for `O=C(NC1CCc2ccc(C(=O)N3CCC4(CCN(Cc5ccccn5)CC4)CC3)cc21)c1cc(Cl)ccc1F` (stereo not drawn) [IND_CC-626, 5-Chloro-2-fluoro-N-[6-[9-(pyridin-2-yl-methyl)-3,9-diazaspiro[5.5]undecane-3-carbonyl]-2,3-dihydro-1H-inden-1-yl]-benzamide] in this work. An inhibition at 10 µM of 101% was found for `Cc1cccc(C(=O)NC2CCc3ccc(C(=O)N4CCC5(CC4)CCN(c4ccncc4)C5)cc32)c1C` (stereo not drawn) [IND_CC-388, 2,3-Dimethyl-N-[6-(2-pyridin-4-yl-2,8-diazaspiro[4.5]decane-8-carbonyl)-2,3-dihydro-1H-inden-1-yl]-benzamide] in this work. An inhibition at 10 µM of 99% was found for `COc1cccc(F)c1CN1CCC2(CC1)CCN(C(=O)c1ccc3c(c1)C(NC(=O)c1ccccc1Cl)CC3)C2` (stereo not drawn) [IND_CC-546, 2-Chloro-N-[6-[8-[(2-fluoro-6-methoxy-phenyl)-methyl]-2,8-diazaspiro[4.5]decane-2-carbonyl]-2,3-dihydro-1H-inden-1-yl]-benzamide] in this work. An inhibition at 10 µM of 94% was found for `O=C(NC1CCc2ccc(C(=O)N3CCC4(CCN(Cc5cccnc5)CC4)CC3)cc21)c1ccccc1Cl` (stereo not drawn) [IND_CC-511, 2-Chloro-N-[6-[9-(pyridin-3-yl-methyl)-3,9-diazaspiro[5.5]undecane-3-carbonyl]-2,3-dihydro-1H-inden-1-yl]-benzamide] in this work. An inhibition at 10 µM of 98% was found for `N#Cc1ccccc1S(=O)(=O)N1CCC2(CCN(C(=O)c3ccc4c(c3)C(NC(=O)c3ccccc3Cl)CC4)CC2)CC1` (stereo not drawn) [IND_CC-611, 2-Chloro-N-[6-[9-[(2-cyano-phenyl)sulfonyl]-3,9-diazaspiro[5.5]undecane-3-carbonyl]-2,3-dihydro-1H-inden-1-yl]-benzamide] in this work. An inhibition at 10 µM of 96% was found for `O=C(NC1CCc2ccc(C(=O)N3CCC4(CCN(Cc5cc(F)ccc5F)CC4)CC3)cc21)c1c(F)cccc1Cl` (stereo not drawn) [IND_CC-790, 2-Chloro-N-[6-[9-[(2,5-difluoro-phenyl)-methyl]-3,9-diazaspiro[5.5]undecane-3-carbonyl]-2,3-dihydro-1H-inden-1-yl]-6-fluoro-benzamide] in this work. An inhibition at 10 µM of 93% was found for `Cc1nc(CN2CCC3(CC2)CCN(C(=O)c2ccc4c(c2)C(NC(=O)c2c(F)cccc2Cl)CC4)C3)c[nH]1` (stereo not drawn) [IND_CC-736, 2-Chloro-6-fluoro-N-[6-[8-[(2-methyl-1H-imidazol-4-yl)-methyl]-2,8-diazaspiro[4.5]decane-2-carbonyl]-2,3-dihydro-1H-inden-1-yl]-benzamide] in this work. An inhibition at 10 µM of 101% was found for `CC1(C)CC(NS(=O)(=O)c2cccc(C(F)(F)F)c2)c2cc(C(=O)N3CCC4(CC3)CCN(c3ccncc3)CC4)ccc21` (stereo not drawn) [IND_CC-340, N-[3,3-Dimethyl-6-(3-pyridin-4-yl-3,9-diazaspiro[5.5]undecane-9-carbonyl)-1,2-dihydro-inden-1-yl]-3-(trifluoromethyl)-benzenesulfonic acid amide] in this work. An inhibition at 10 µM of 83% was found for `Cc1cccc(Cl)c1C(=O)NC1CCc2ccc(C(=O)N3CCC4(CCN(Cc5ccccc5C#N)CC4)C3)cc21` (stereo not drawn) [IND_CC-733, 2-Chloro-N-[6-[8-[(2-cyano-phenyl)-methyl]-2,8-diazaspiro[4.5]decane-2-carbonyl]-2,3-dihydro-1H-inden-1-yl]-6-methyl-benzamide] in this work. An inhibition at 10 µM of 106% was found for `O=C(NC1CCc2ccc(C(=O)N3CCC4(CCN(CCCc5cccc(F)c5)CC4)C3)cc21)c1c(F)cccc1Cl` (stereo not drawn) [IND_CC-781, 2-Chloro-6-fluoro-N-[6-[8-[3-(3-fluorophenyl)-propyl]-2,8-diazaspiro[4.5]decane-2-carbonyl]-2,3-dihydro-1H-inden-1-yl]-benzamide] in this work. An inhibition at 10 µM of 58% was found for `CN(C(=O)c1ccc(C(F)(F)F)cn1)C1CCc2ccc(C(=O)N3CCC4(CC3)CCN(c3ccncc3)CC4)cc21` (stereo not drawn) [IND_CC-395, N-Methyl-N-[6-(9-pyridin-4-yl-3,9-diazaspiro[5.5]undecane-3-carbonyl)-2,3-dihydro-1H-inden-1-yl]-5-(trifluoromethyl)-pyridine-2-carboxylic acid amide] in this work. An inhibition at 10 µM of 60% was found for `Cc1ccc(C(=O)NC2c3cc(C(=O)N4CCC5(CC4)CCN(c4ccncc4)CC5)ccc3CC2(C)C)c(F)c1` (stereo not drawn) [IND_CC-317, N-[2,2-Dimethyl-6-(9-pyridin-4-yl-3,9-diazaspiro[5.5]undecane-3-carbonyl)-1,3-dihydro-inden-1-yl]-2-fluoro-4-methyl-benzamide] in this work. An inhibition at 10 µM of 81% was found for `Cc1nn(C)c(C)c1CN1CCC2(CC1)CCN(C(=O)c1ccc3c(c1)C(NC(=O)c1ccccc1Cl)CC3)C2` (stereo not drawn) [IND_CC-564, 2-Chloro-N-[6-[8-[(1,3,5-trimethyl-1H-pyrazol-4-yl)-methyl]-2,8-diazaspiro[4.5]decane-2-carbonyl]-2,3-dihydro-1H-inden-1-yl]-benzamide] in this work. An inhibition at 10 µM of 105% was found for `CN(C(=O)C1CCCCC1)C1CCc2ccc(C(=O)N3CCC4(CC3)CCN(c3ccncc3)CC4)cc21` (stereo not drawn) [IND_CC-365, N-Methyl-N-[6-(9-pyridin-4-yl-3,9-diazaspiro[5.5]undecane-3-carbonyl)-2,3-dihydro-1H-inden-1-yl]-cyclohexanecarboxylic acid amide] in this work. An inhibition at 10 µM of 90% was found for `CN(C)c1ncc(CN2CCC3(CC2)CCN(C(=O)c2ccc4c(c2)C(NC(=O)c2cccc(Cl)c2Cl)CC4)CC3)cn1` (stereo not drawn) [IND_CC-753, 2,3-Dichloro-N-[6-[9-[(2-dimethylamino-pyrimidin-5-yl)-methyl]-3,9-diazaspiro[5.5]undecane-3-carbonyl]-2,3-dihydro-1H-inden-1-yl]-benzamide] in this work. An inhibition at 10 µM of 104% was found for `O=C(NC1CCc2ccc(C(=O)N3CCC4(CC3)CCN(c3ccncc3)C4)cc21)c1c(F)cccc1F` (stereo not drawn) [IND_CC-385, 2,6-Difluoro-N-[6-(2-pyridin-4-yl-2,8-diazaspiro[4.5]decane-8-carbonyl)-2,3-dihydro-1H-inden-1-yl]-benzamide] in this work. An inhibition at 10 µM of 102% was found for `O=C(NC1CCc2ccc(C(=O)N3CCC4(CCN(Cc5ccc(F)cc5F)CC4)CC3)cc21)c1ccccc1Cl` (stereo not drawn) [IND_CC-516, 2-Chloro-N-[6-[9-[(2,4-difluoro-phenyl)-methyl]-3,9-diazaspiro[5.5]undecane-3-carbonyl]-2,3-dihydro-1H-inden-1-yl]-benzamide] in this work. An inhibition at 10 µM of 85% was found for `CN(C(=O)c1ccccc1Cl)C1CCc2ccc(C(=O)N3CCC4(CCN(C(=O)Cc5ccc(Cl)cc5)CC4)C3)cc21` (stereo not drawn) [IND_CC-592, 2-Chloro-N-[6-[8-[2-(4-chlorophenyl)-acetyl]-2,8-diazaspiro[4.5]decane-2-carbonyl]-2,3-dihydro-1H-inden-1-yl]-N-methyl-benzamide] in this work. An inhibition at 10 µM of 106% was found for `Cc1ccccc1C(=O)NC1CCc2ccc(C(=O)N3CCC4(CC3)CCN(c3ccncc3)C4)cc21` (stereo not drawn) [IND_CC-347, 2-Methyl-N-[6-(2-pyridin-4-yl-2,8-diazaspiro[4.5]decane-8-carbonyl)-2,3-dihydro-1H-inden-1-yl]-benzamide] in this work. An inhibition at 10 µM of 96% was found for `CC(C)(C)CC(=O)N1CCC2(CC1)CCN(C(=O)c1ccc3c(c1)C(NC(=O)c1ccccc1Cl)CC3)CC2` (stereo not drawn) [IND_CC-598, 2-Chloro-N-[6-[9-(3,3-dimethyl-butanoyl)-3,9-diazaspiro[5.5]undecane-3-carbonyl]-2,3-dihydro-1H-inden-1-yl]-benzamide] in this work. An inhibition at 10 µM of 73% was found for `Cc1nc(CN2CCC3(CC2)CCN(C(=O)c2ccc4c(c2)C(NC(=O)c2ccccc2Cl)CC4)C3)c[nH]1` (stereo not drawn) [IND_CC-554, 2-Chloro-N-[6-[8-[(2-methyl-1H-imidazol-4-yl)-methyl]-2,8-diazaspiro[4.5]decane-2-carbonyl]-2,3-dihydro-1H-inden-1-yl]-benzamide] in this work. An inhibition at 10 µM of 67% was found for `O=C(c1ccc2c(c1)C(N(C(=O)c1ccccc1Cl)C1CC1)CC2)N1CCC2(CCN(S(=O)(=O)c3ccc(Cl)s3)CC2)C1` (stereo not drawn) [IND_CC-615, 2-Chloro-N-[6-[8-[(5-chloro-thiophen-2-yl)sulfonyl]-2,8-diazaspiro[4.5]-decane-2-carbonyl]-2,3-dihydro-1H-inden-1-yl]-N-cyclopropyl-benzamide] in this work. An inhibition at 10 µM of 78% was found for `Cn1nnc2cc(CN3CCC4(CC3)CCN(C(=O)c3ccc5c(c3)C(NC(=O)c3cccc(Cl)c3Cl)CC5)C4)ccc21` (stereo not drawn) [IND_CC-746, 2,3-Dichloro-N-[6-[8-[(1-methyl-1H-benzotriazol-5-yl)-methyl]-2,8-diazaspiro[4.5]decane-2-carbonyl]-2,3-dihydro-1H-inden-1-yl]-benzamide] in this work. An inhibition at 10 µM of 60% was found for `O=C(NC1CCc2ccc(C(=O)N3CCC4(CC3)CCN(c3ccc(C(F)(F)F)cc3)CC4)cc21)c1cc(F)ccc1Cl` (stereo not drawn) [IND_CC-222, 2-Chloro-5-fluoro-N-[6-[9-[4-(trifluoromethyl)-phenyl]-3,9-diazaspiro[5.5]undecane-3-carbonyl]-2,3-dihydro-1H-inden-1-yl]-benzamide] in this work.
